The target in one assay is T1, human CB2 receptors (Homo sapiens, UniProt P34972).
T1 construct: expressed in transfected cells; host or cells: HEK293
In words: Human CB2 radioligand binding assay ([3H]CP-55,940 competition). As to the method: The CB1 and CB2 radioligand binding assays described herein are utilized to determine the selectivity of compounds of the present invention for binding to CB2 relative to CB1 receptors.
(§1) HEK293 cells stably expressing human CB2 receptors were grown until a confluent monolayer was formed. Briefly, the cells were harvested and homogenized in TE buffer (50 mM Tris-HCl, 1 mM MgCl2, and 1 mM EDTA) using a polytron for 2×10 second bursts in the presence of protease inhibitors, followed by centrifugation at 45,000×g for 20 minutes. The final membrane pellet was re-homogenized in storage buffer (50 mM Tris-HCl, 1 mM MgCl2, and 1 mM EDTA and 10% sucrose) and frozen at −78° C. until used. Saturation binding reactions were initiated by the addition of membrane preparation (protein concentration of 5 μg/well for human CB2) into wells of a deep well plate containing ([^3H]CP-55,940 (120 Ci/mmol, a nonselective CB agonist commercially available from Tocris) in assay buffer (50 mM Tris, 2.5 mM EDTA, 5 mM MgCl2, and 0.5 mg/mL fatty acid free BSA, pH 7.4). After 90 min incubation at 30° C., binding reaction was terminated by the addition of 300 μL/well of cold assay buffer followed by rapid vacuum filtration through a UniFilter-96 GF/C filter plates (pre-soaked in 1 mg/mL BSA for 2 hours). The bound activity was counted in a TopCount using Microscint-20. Saturation experiments were conducted with twelve concentrations of [^3H]CP-55,940 ranging from 0.01 to 8 nM. Competition experiments were conducted with 0.5 nM [^3H]CP-55,940 and five concentrations of displacing ligands selected from the range of 0.01 nM to 10 μM. The addition of 10 μM unlabeled CP-55,940 (Tocris, Ellisville, Mo.) was used to assess nonspecific binding.

A further assay has as its target T2, rat CB2 receptors (Rattus norvegicus, UniProt Q9QZN9).
T2 construct: expressed in transfected cells; host or cells: HEK293
T2 sequence (Q9QZN9 1-360): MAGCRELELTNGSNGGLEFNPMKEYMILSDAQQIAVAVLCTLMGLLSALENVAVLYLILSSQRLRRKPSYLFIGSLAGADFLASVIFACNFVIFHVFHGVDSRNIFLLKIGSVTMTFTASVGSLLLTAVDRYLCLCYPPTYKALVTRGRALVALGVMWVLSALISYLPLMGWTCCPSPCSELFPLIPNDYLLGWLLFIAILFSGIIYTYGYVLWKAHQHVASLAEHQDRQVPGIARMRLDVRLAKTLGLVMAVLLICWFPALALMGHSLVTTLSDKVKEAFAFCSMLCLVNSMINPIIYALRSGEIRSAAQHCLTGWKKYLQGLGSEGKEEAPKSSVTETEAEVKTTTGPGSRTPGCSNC
In words: Rat CB2 radioligand binding assay ([3H]CP-55,940 competition). The method, then:
as §1, with “expressing rat” for “expressing human”, “of 20” for “of 5”, “for rat” for “for human”, “containing [^3H]CP-55,940” for “containing ([^3H]CP-55,940”, “After 45” for “After 90”, “[…]” for “10 μM.”

Ki data for ten molecules are collected here from patent publication US8492371B2, “Compounds as cannabinoid receptor ligands” (priority 2009, dated 2013).

Where two headings read alike, the source gives them in different places.

As usually defined, the Ki is a measure of affinity in units of concentration, obtained from inhibition or displacement.

T1 sequence (P34972 whole entry): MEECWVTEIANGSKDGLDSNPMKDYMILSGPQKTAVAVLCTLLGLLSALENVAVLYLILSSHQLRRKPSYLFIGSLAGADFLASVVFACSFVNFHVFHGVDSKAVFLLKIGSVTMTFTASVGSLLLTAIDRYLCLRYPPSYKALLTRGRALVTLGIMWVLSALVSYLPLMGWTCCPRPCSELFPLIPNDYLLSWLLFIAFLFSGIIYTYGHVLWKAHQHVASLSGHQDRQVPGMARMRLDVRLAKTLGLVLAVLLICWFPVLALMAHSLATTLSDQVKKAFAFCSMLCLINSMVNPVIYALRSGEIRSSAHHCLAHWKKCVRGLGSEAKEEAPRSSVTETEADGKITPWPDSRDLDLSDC

With `COc1ccc(C(F)(F)F)cc1C(=O)/N=c1\c2c(n(C)n1C[C@H]1CCCO1)CCC2` [Example 32, 2-methoxy-N-[(3E)-1-methyl-2-[(2R)-tetrahydrofuran-2-ylmethyl]-1,4,5,6-tetrahydrocyclopenta[c]pyrazol-3(2H)-ylidene]-5-(trifluoromethyl)benzamide], the Ki on human CB2 receptors turned out to be 0.261 µM; at rat CB2 receptors (HEK293 membranes, 0.5 nM [3H]CP-55,940, read-out: rat CB2 Ki) it was 0.114 µM.
With `COc1ccc(C(F)(F)F)cc1C(=O)/N=c1\cc(C2(C)CC2)n(C)n1C[C@H]1CCCO1` [Example 33, 2-methoxy-N-{(3E)-1-methyl-5-(1-methylcyclopropyl)-2-[(2R)-tetrahydrofuran-2-ylmethyl]-1,2-dihydro-3H-pyrazol-3-ylidene}-5-(trifluoromethyl)benzamide], the Ki on human CB2 receptors is 0.081 µM; on rat CB2 receptors, 0.014 µM.
In the same order, the values of `COCCNc1ccc(C(F)(F)F)cc1C(=O)/N=c1\cc(C(C)(C)C)n(C)n1C[C@H]1CCCO1` [Example 34] are 0.011 µM and 0.0055 µM.
Regarding `Cn1c(C(C)(C)C)c/c(=N\C(=O)c2cc(C(F)(F)F)ccc2OCC(F)F)n1C[C@H]1CCCO1` [Example 35, N-{(3E)-5-tert-butyl-1-methyl-2-[(2R)-tetrahydrofuran-2-ylmethyl]-1,2-dihydro-3H-pyrazol-3-ylidene}-2-(2,2-difluoroethoxy)-5-(trifluoromethyl)benzamide], the inhibitory constant (Ki) came out at 0.017 µM at human CB2 receptors and 0.0055 µM at rat CB2 receptors.
The like results for `Cn1c(C(C)(C)C)c/c(=N\C(=O)c2cc(C(F)(F)F)ccc2NCCF)n1C[C@H]1CCCO1` [Example 39, N-{(3E)-5-tert-butyl-1-methyl-2-[(2R)-tetrahydrofuran-2-ylmethyl]-1,2-dihydro-3H-pyrazol-3-ylidene}-2-[(2-fluoroethyl)amino]-5-(trifluoromethyl)benzamide] were, in that order, 0.0089 µM and 0.0038 µM.
In the same order, the values of `CC(F)COc1ccc(C(F)(F)F)cc1C(=O)/N=c1\cc(C(C)(C)C)n(C)n1C[C@H]1CCCO1` (stereo partly drawn) [Example 40, N-{(3E)-5-tert-butyl-1-methyl-2-[(2R)-tetrahydrofuran-2-ylmethyl]-1,2-dihydro-3H-pyrazol-3-ylidene}-2-(2-fluoropropoxy)-5-(trifluoromethyl)benzamide] are 0.032 µM and 0.022 µM.
With `C[C@@H](F)COc1ccc(C(F)(F)F)cc1C(=O)/N=c1\cc(C(C)(C)C)n(C)n1C[C@H]1CCCO1` [Example 41, N-{(3E)-5-tert-butyl-1-methyl-2-[(2R)-tetrahydrofuran-2-ylmethyl]-1,2-dihydro-3H-pyrazol-3-ylidene}-2-{[(2R)-2-fluoropropyl]oxy}-5-(trifluoromethyl)benzamide], the figures for the Ki at human CB2 receptors and at rat CB2 receptors were 0.132 µM and 0.018 µM, respectively.
In the same order, the values of `CC(CF)Oc1ccc(C(F)(F)F)cc1C(=O)/N=c1\cc(C(C)(C)C)n(C)n1C[C@H]1CCCO1` (stereo partly drawn) [Example 42, N-{(3E)-5-tert-butyl-1-methyl-2-[(2R)-tetrahydrofuran-2-ylmethyl]-1,2-dihydro-3H-pyrazol-3-ylidene}-2-(2-fluoro-1-methylethoxy)-5-(trifluoromethyl)benzamide] are 0.139 µM and 0.03 µM.
The like results for `Cn1c(C(C)(C)C)c/c(=N\C(=O)c2cc(C(F)(F)F)ccc2OCCC(C)(C)F)n1C[C@H]1CCCO1` [Example 43, N-{(3E)-5-tert-butyl-1-methyl-2-[(2R)-tetrahydrofuran-2-ylmethyl]-1,2-dihydro-3H-pyrazol-3-ylidene}-2-(3-fluoro-3-methylbutoxy)-5-(trifluoromethyl)benzamide] were, in that order, 0.019 µM and 0.01 µM.
The like results for `Cn1c(C(C)(C)C)c/c(=N\C(=O)c2cc(C(F)(F)F)ccc2OCC2(O)CCC2)n1C[C@H]1CCCO1` [Example 44, N-{(3E)-5-tert-butyl-1-methyl-2-[(2R)-tetrahydrofuran-2-ylmethyl]-1,2-dihydro-3H-pyrazol-3-ylidene}-2-[(1-hydroxycyclobutyl)methoxy]-5-(trifluoromethyl)benzamide] were, in that order, 0.017 µM and 0.018 µM.
